Reference: patent US8088806B2 (Achillion Pharmaceuticals, Inc., priority 2005, dated 2012)
pEC50: −log10 of the molar value.

system: HCV replicon; assay: Replicon based assay of HCV replication inhibition (NPT ELISA); type: cell-based, Hepatitis C virus; settings: Hepatitis C virus, Huh-7, 72 h, Table I; Huh-7 HCV replicon-containing cells, three days; read-out: Activity
Summary of the method: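 Huh-7 cells carrying a bicistronic HCV replicon (neo, EMCV-IRES-driven NS3–NS5B) treated overnight after seeding with usually 6 concentrations, 10 to 0.03 micromolar, for three days at 37° C without G418. Replication read as NPT level by captured ELISA; matched-DMSO wells and interferon alpha as controls.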

`Clc1ccc(-c2csc(Nc3cccc(OCc4ccccc4)c3)n2)cc1Cl` [compound 28, N-(3-(benzyloxy)phenyl)-4-(3,4-dichlorophenyl)thiazol-2-amine] and `Clc1ccc(-c2csc(Nc3cccc(OCc4ccccc4)c3)n2)cc1` [compound 30, N-(3-(benzyloxy)phenyl)-4-(4-chlorophenyl)thiazol-2-amine] cannot be ordered by pEC50: over 6.00 for the first, over 6.00 for the second.

`CCCCCOc1ccc(Nc2nc(-c3ccc(OC(F)F)cc3)cs2)cc1C(F)(F)F` [compound 4, 4-(4-(difluoromethoxy)phenyl)-N-(3-(trifluoromethyl)-4-(pentyloxy)phenyl)thiazol-2-amine] and `CCCCCOc1ccc(Nc2nc(-c3ccc(OC)cc3)cs2)cc1C(F)(F)F` [compound 134, N-(3-(trifluoromethyl)-4-(pentyloxy)phenyl)-4-(4-methoxyphenyl)thiazol-2-amine] cannot be ordered by pEC50: over 6.00 for the first, over 6.00 for the second.

First: N#Cc1cccc(Nc2nc(-c3ccc(Cl)c(Cl)c3)cs2)c1 [compound 56, 3-(4-(3,4-dichlorophenyl)thiazol-2-ylamino)benzonitrile]
Second: CCCCc1ccc(Nc2nc(-c3cccnc3)cs2)cc1 [compound 96, N-(4-butylphenyl)-4-(pyridin-3-yl)thiazol-2-amine]
The pEC50 of the first is lower: under 5.00 for the first, 5.00 to 6.00 for the second.

`CCCCCOc1ccc(Nc2nc(-c3cc(C(=O)OCC)no3)cs2)cc1F` [compound 176, ethyl 5-(2-(3-fluoro-4-(pentyloxy)phenylamino)thiazol-4-yl)isoxazole-3-carboxylate] and `CCCCCOc1ccc(Nc2nc(C(=O)Nc3ccc(Cl)cc3)cs2)cc1C(F)(F)F` [compound 11, 2-(3-(trifluoromethyl)-4-(pentyloxy)phenylamino)-N-(4-chlorophenyl)thiazole-4-carboxamide] cannot be ordered by pEC50: under 5.00 for the first, under 5.00 for the second.

`CCCCCOc1ccc(Nc2ncc(C(=O)Nc3ccc(C#N)cc3)s2)cc1C(F)(F)F` [compound 150, 2-(3-(trifluoromethyl)-4-(pentyloxy)phenylamino)-N-(4-cyanophenyl)thiazole-5-carboxamide] and `CCCCCOc1ccc(Nc2nc(CN(C)C)cs2)cc1C(F)(F)F` [compound 172, 4-((dimethylamino)methyl)-N-(3-(trifluoromethyl)-4-(pentyloxy)phenyl)thiazol-2-amine] cannot be ordered by pEC50: over 6.00 for the first, over 6.00 for the second.

Compound `Fc1ccc(-c2csc(Nc3ccc(OC(F)(F)F)cc3)n2)c(F)c1` [compound 45, 4-(2,4-difluorophenyl)-N-(4-(trifluoromethoxy)phenyl)thiazol-2-amine] has a pEC50 of under 5.00.

same assay, conditions: Hepatitis C virus, Huh-7, 72 h, Table III; Huh-7 HCV replicon-containing cells, three days; read-out: Activity

`CCCCCCCCOc1ccc(Nc2nc(-c3ccsc3)cs2)cc1C(F)(F)F` [compound 714, N-(3-(trifluoromethyl)-4-(octyloxy)phenyl)-4-(thiophen-3-yl)thiazol-2-amine] and `CCCCCCCCOc1ccc(Nc2nc(-c3ccc(N(C)C)nc3)cs2)cc1C(F)(F)F` [compound 541, 5-(2-(3-(trifluoromethyl)-4-(octyloxy)phenylamino)thiazol-4-yl)-N,N-dimethylpyridin-2-amine] cannot be ordered by pEC50: over 6.00 for the first, over 6.00 for the second.

`CCCCCCCc1ccc(Nc2nc(-c3ccc4[nH]c(=O)oc4c3)cs2)cc1` [compound 561] and `CCCCCCCCOc1ccc(Nc2nc(-c3ccc4c(c3)OCO4)cs2)cc1C(F)(F)F` [compound 706, 4-(benzo[d][1,3]dioxol-5-yl)-N-(3-(trifluoromethyl)-4-(octyloxy)phenyl)thiazol-2-amine] cannot be ordered by pEC50: over 6.00 for the first, over 6.00 for the second.

Compared with `CCCCCOc1ccc(Nc2nc(Cc3ccc(F)cc3)cs2)cc1F` [compound 630, 4-(4-fluorobenzyl)-N-(3-fluoro-4-(pentyloxy)phenyl)thiazol-2-amine], `CCCCCCCCOc1ccc(Nc2nc(O)cs2)cc1C(F)(F)F` [compound 650, 2-(3-(trifluoromethyl)-4-(octyloxy)phenylamino)thiazol-4-ol] is higher in pEC50: under 5.00 for the first, 5.00 to 6.00 for the second. The second is the more potent here.

First: CCCCCCCCN(C)c1ccc(Nc2nc(-c3ccc(O)c(O)c3)cs2)cc1C(F)(F)F [compound 571, 4-(2-(4-(N-methyl-N-octylamino)-3-(trifluoromethyl)phenylamino)thiazol-4-yl)benzene-1,2-diol]
Second: Oc1csc(Nc2ccc(OCCCC3CCCC3)c(C(F)(F)F)c2)n1 [compound 652]
The pEC50 of the first is higher: over 6.00 for the first, 5.00 to 6.00 for the second. The first is the more potent here.

same assay, conditions: Hepatitis C virus, replicon based assay of HCV replication inhibition; Table II; read-out: Activity

Compared with `CCCCCOc1ccc(Nc2nc(CN3CCN(CCN(C)C)CC3)cs2)cc1F` [compound 283, 4-((4-(2-(dimeethylamino)ethyl)piper-azin-1-yl)methyl)-N-(3-fluoro-4-(pentyloxy)phenyl)thiazol-2-amine], `CCCCCOc1ccc(Nc2nc(CN3CCC(CO)CC3)cs2)cc1C(F)(F)F` [compound 273, (1-((2-(4-(pentyloxy)-3-(trifluoromethyl)phenyl-amino)thiazol-4-yl)methyl)piperidin-4-yl)methanol] is higher in pEC50: 5.00 to 6.00 for the first, over 6.00 for the second.

Compared with `CCCCCOc1ccc(Nc2nc(-c3ccc(C(=O)O)cc3)cs2)cc1F` [compound 426, 4-(2-(3-fluoro-4-(pentyloxy)phenylamino)thia-zol-4-yl)benzoic acid], `CCCCCOc1ccc(Nc2nc(-c3ccc(F)nc3)cs2)cc1C(F)(F)F` [compound 486, N-(3-(trifluoromethyl)-4-(pentyloxy)phenyl)-4-(6-fluoropyridin-3-yl)thiazol-2-amine] is higher in pEC50: 5.00 to 6.00 for the first, over 6.00 for the second.

First: CN(CCCCCCO)c1ccc(Nc2nc(-c3ccc(F)cc3)cs2)cc1C(F)(F)F [compound 470, 6-(N-(4-(4-(4-fluorophenyl)thiazol-2-ylamino)-2-(trifluoromethyl)phenyl)-N-methylamino)hexan-1-ol]
Second: COc1ccc(-c2csc(Nc3ccc(OC4CCCC4)c(C(F)(F)F)c3)n2)cc1 [compound 248, N-(4-(cyclopentyloxy)-3-(trifluoromethyl)phenyl)-4-(4-methoxyphenyl)thiazol-2-amine]
The pEC50 of the first is lower: 5.00 to 6.00 for the first, over 6.00 for the second. The second is the more potent here.

First: NC(=O)c1cc(-c2csc(Nc3ccc(OC4CCCC4)c(C(F)(F)F)c3)n2)ccc1O [compound 254, 5-(2-(4-(cyclopentyloxy)-3-(trifluoromethyl)phenyl-amino)thiazol-4-yl)-2-hydroxybenzamide]
Second: Cc1sc(Nc2cccc(C(F)(F)F)c2)nc1-c1ccc(F)cc1 [compound 348, 4-(4-fluorophenyl)-5-methyl-N-(3-(trifluoromethyl)phenyl)thia-zol-2-amine]
The pEC50 of the first is higher: over 6.00 for the first, 5.00 to 6.00 for the second. The first is the more potent here.

Compared with `Cc1sc(NC(=O)c2ccccc2)nc1-c1ccc(CC(=O)O)cc1` [compound 345, 2-(4-(2-benzamido-5-methylthiazol-4-yl)phenyl)acetic acid], `CCCCCCCCOc1ccc(Nc2nc(-c3ccccc3)cs2)cc1` [compound 327, N-(4-(octyloxy)phenyl)-4-phenylthiazol-2-amine] is higher in pEC50: under 5.00 for the first, over 6.00 for the second.

`CCCCCCCCOc1ccc(Nc2nc(-c3csc(N)n3)cs2)cc1` [compound 306, 4-(2-aminothiazol-4-yl)-N-(4-(octyloxy)phenyl)thiazol-2-amine] and `CCCCCCCCOc1ccc(Nc2nc(-c3ccc(OC)cc3)cs2)cc1` [compound 310, 4-(4-methoxyphenyl)-N-(4-(octyloxy)phenyl)thiazol-2-amine] cannot be ordered by pEC50: over 6.00 for the first, over 6.00 for the second.

`CCCCCCCCOc1ccc(Nc2nc(CN3CCC(C)CC3)cs2)cc1` [compound 324, 4-((4-methylpiperidin-1-yl)methyl)-N-(4-(octyloxy)phenyl)thiazol-2-amine] was tested, and the pEC50 was 5.00 to 6.00.

same assay, conditions: Hepatitis C virus, replicon based assay of HCV replication inhibition; Table IV; read-out: Activity

`CCCCCCCCOc1ccc(Nc2nc(-c3csc(C)n3)cs2)cc1C(F)(F)F` [compound 915, N-(3-(trifluoromethyl)-4-(octyloxy)phenyl)-4-(2-methylthiazol-4-yl)thiazol-2-amine] and `CCCCCCCCOc1ccc(Nc2nc(-c3cccnc3C#N)cs2)cc1C(F)(F)F` [compound 813, 3-(2-(3-(trifluoromethyl)-4-(octyloxy)phenylamino)thiazol-4-yl)pyridine-2-carbonitrile] cannot be ordered by pEC50: over 6.00 for the first, over 6.00 for the second.

`Cc1sc(Nc2ccc(OCC3CCCCC3)c(C(F)(F)F)c2)nc1-c1cccnc1` [compound 856, N-(4-(cyclohexylmethoxy)-3-(trifluoromethyl)phenyl)-5-methyl-4-(pyridin-3-yl)thiazol-2-amine] and `Cc1ccnc(-c2csc(Nc3ccc(OCC4CCCCC4)c(C(F)(F)F)c3)n2)c1` [compound 768, N-(4-(cyclohexylmethoxy)-3-(trifluoromethyl)phenyl)-4-(4-methylpyridin-2-yl)thiazol-2-amine] cannot be ordered by pEC50: over 6.00 for the first, over 6.00 for the second.

Compared with `Fc1ccc(Cn2ccc3cc(Nc4nc(-c5ccc(F)cc5)cs4)ccc32)cc1` [compound 871, 1-(4-fluorobenzyl)-N-(4-(4-fluorophenyl)thiazol-2-yl)-1H-indol-5-amine], `Fc1ccc(Cn2ccc3ccc(Nc4nc(-c5ccc(F)cc5)cs4)cc32)cc1` [compound 868, 1-(4-fluorobenzyl)-N-(4-(4-fluorophenyl)thiazol-2-yl)-1H-indol-6-amine] is higher in pEC50: under 5.00 for the first, over 6.00 for the second.

`c1cncc(-c2csc(Nc3ccc4nccnc4c3)n2)c1` [compound 761, N-(4-(pyridin-3-yl)thiazol-2-yl)quinoxalin-6-amine] and `CCN(CC)C(=O)c1ccc(Nc2nc(-c3cccnc3)cs2)cc1` [compound 820, 4-(4-(pyridin-3-yl)thiazol-2-ylamino)-N,N-diethylbenzamide] cannot be ordered by pEC50: under 5.00 for the first, under 5.00 for the second.

`Cc1sc(Nc2ccc(OCCCc3ccccc3)c(C(F)(F)F)c2)nc1-c1cccnc1` [compound 839, N-(4-(3-phenylpropoxy)-3-(trifluoromethyl)phenyl)-5-methyl-4-(pyridin-3-yl)thiazo1-2-amine] and `CCCCCCCCOc1ccc(Nc2nc(-c3cnc(OC)nc3)c(F)s2)cc1C(F)(F)F` [compound 946, 5-fluoro-N-(3-(trifluoromethyl)-4-(octyloxy)phenyl)-4-(2-methoxypyrimidin-5-yl)thiazol-2-amine] cannot be ordered by pEC50: over 6.00 for the first, over 6.00 for the second.

`Fc1ccc(Cn2ccc3cc(Nc4nc(-c5cccnc5)cs4)ccc32)cc1` [compound 870] showed a pEC50 of over 6.00.
